Patent US7365095B2, “Chromane and chromene derivatives and uses thereof” (Wyeth, priority 2005, dated 2008)
Where a name gives a salt, the structure may show the parent alone. Read-outs that look alike come from different tables or passages of the source.

How the values were obtained:
[1] = target: T1, human 5-hydroxytryptamine-2C (h5-HT2C) receptor (Homo sapiens, UniProt P28335); experiment: [125I]DOI binding to membranes of CHO cells expressing h5-HT2C receptor
T1 construct: expressed in transfected cells; host or cells: CHO (Chinese Hamster Ovary) cells; membrane preparation
T1 sequence (P28335 33-458): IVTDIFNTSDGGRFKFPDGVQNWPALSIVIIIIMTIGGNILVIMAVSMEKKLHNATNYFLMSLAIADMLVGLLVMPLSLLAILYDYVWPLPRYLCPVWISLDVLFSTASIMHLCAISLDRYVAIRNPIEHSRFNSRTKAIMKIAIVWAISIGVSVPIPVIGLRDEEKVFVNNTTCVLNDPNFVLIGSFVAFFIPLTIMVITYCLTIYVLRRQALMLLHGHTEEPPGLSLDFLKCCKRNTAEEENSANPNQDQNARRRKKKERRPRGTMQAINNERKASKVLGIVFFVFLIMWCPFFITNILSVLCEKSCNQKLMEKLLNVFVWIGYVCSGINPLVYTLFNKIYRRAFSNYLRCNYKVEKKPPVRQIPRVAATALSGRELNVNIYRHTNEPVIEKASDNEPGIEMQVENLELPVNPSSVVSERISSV

[2] = target: T2, human 5-HT2C receptor (Homo sapiens, UniProt P28335); experiment: calcium mobilization (FLIPR) in CHO cells stably expressing the human 5-HT2C receptor; type: cell-based; conditions: for Emax: CHO, read-out: 5-HT2C Function EMax (%); for EC50: calcium mobilization, read-out: 5-HT2C Function EC50
T2 sequence (P28335 33-458): T1 sequence (P28335 33-458)

[3] = read-out: 5-HT2C Binding Ki avg

Structure (SMILES) | Ki [1, 3] | Emax [2] | EC50 [2] | Ki ([1]; reference compounds, 95% confidence interval in brackets, [125I]DOI displacement, read-out: Ki) | Kd ([1]; saturation binding with increasing concentrations of [125I] DOI, read-out: dissociation constant, KD)
CNCC1CCc2cccc(-c3ccccc3Cl)c2O1 (stereo not shown) [Compound 1, N-{[8-(2-chlorophenyl)-3,4-dihydro-2H-chromen-2-yl]methyl}-N-methylamine hydrochloride] | 10 to 50 nM | 80% | < 50 nM |  | 
NCC1CCc2cccc(-c3ccccc3Cl)c2O1 (stereo not shown) [Compound 2, {[8-(2-chlorophenyl)-3,4-dihydro-2H-chromen-2-yl]methyl}amine trifluoroacetate] | ≤ 10 nM | 80% | < 50 nM |  | 
CNC[C@H]1CCc2cccc(-c3cc(Cl)ccc3Cl)c2O1 [Compound 3, {[(2R)-8-(2,5-dichlorophenyl)-3,4-dihydro-2H-chromen-2-yl]methyl}methylamine hydrochloride] | ≤ 10 nM | 90% | < 50 nM |  | 
CNC[C@H]1CCc2cccc(-c3ccc(Cl)cc3Cl)c2O1 [Compound 4, {[(2R)-8-(2,4-dichlorophenyl)-3,4-dihydro-2H-chromen-2-yl]methyl}methylamine hydrochloride] | > 50 nM | 80% | < 50 nM |  | 
CNC[C@H]1CCc2cccc(-c3ccccc3)c2O1 [Compound 5, N-methyl-N-{[(2R)-8-phenyl-3,4-dihydro-2H-chromen-2-yl]methyl}amine hydrochloride] | ≤ 10 nM | 90% | 50 to 200 nM |  | 
CNC[C@H]1CCc2cccc(-c3ccccc3OC)c2O1 [Compound 6, N-{[(2R)-8-(2-methoxyphenyl)-3,4-dihydro-2H-chromen-2-yl]methyl}-N-methylamine hydrochloride] | ≤ 10 nM | 90% | < 50 nM |  | 
CNC[C@H]1CCc2cccc(-c3ccc(OC)cc3OC)c2O1 [Compound 7, N-{[(2R)-8-(2,4-dimethoxyphenyl)-3,4-dihydro-2H-chromen-2-yl]methyl}-N-methylamine hydrochloride] | ≤ 10 nM | 90% | < 50 nM |  | 
CNC[C@H]1CCc2cccc(-c3ccccc3C)c2O1 [Compound 8, N-methyl-N-{[(2R)-8-(2-methylphenyl)-3,4-dihydro-2H-chromen-2-yl]methyl}amine hydrochloride] | ≤ 10 nM | 100% | < 50 nM |  | 
CNC[C@H]1CCc2cccc(-c3cccnc3)c2O1 [Compound 9, N-methyl-N-{[(2R)-8-pyridin-3-yl-3,4-dihydro-2H-chromen-2-yl]methyl}amine hydrochloride] | ≤ 10 nM | 100% | < 50 nM |  | 
CNC[C@H]1CCc2cccc(-c3ccccc3Cl)c2O1 [Compound 10, N-{[(2R)-8-(2-chlorophenyl)-3,4-dihydro-2H-chromen-2-yl]methyl}-N-methylamine hydrochloride] | ≤ 10 nM | 100% | < 50 nM |  | 
NC[C@H]1CCc2cccc(-c3ccccc3Cl)c2O1 [Compound 11, {[(2R)-8-(2-chlorophenyl)-3,4-dihydro-2H-chromen-2-yl]methyl}amine hydrochloride] | ≤ 10 nM | 100% | < 50 nM |  | 
NC[C@H]1CCc2cccc(-c3cc(Cl)ccc3Cl)c2O1 [Compound 12, {[(2R)-8-(2,5-dichlorophenyl)-3,4-dihydro-2H-chromen-2-yl]methyl}amine hydrochloride] | 10 to 50 nM | 90% | 50 to 200 nM |  | 
NC[C@H]1CCc2cccc(-c3ccc(Cl)cc3Cl)c2O1 [Compound 13, {[(2R)-8-(2,4-dichlorophenyl)-3,4-dihydro-2H-chromen-2-yl]methyl}amine hydrochloride] | ≤ 10 nM | 100% | < 50 nM |  | 
NC[C@H]1CCc2cccc(-c3ccccc3)c2O1 [Compound 14, {[(2R)-8-phenyl-3,4-dihydro-2H-chromen-2-yl]methyl}amine hydrochloride] | 10 to 50 nM | 80% | > 200 nM |  | 
COc1ccccc1-c1cccc2c1O[C@@H](CN)CC2 [Compound 15, {[(2R)-8-(2-methoxyphenyl)-3,4-dihydro-2H-chromen-2-yl]methyl}amine hydrochloride] | ≤ 10 nM | 90% | < 50 nM |  | 
COc1ccc(-c2cccc3c2O[C@@H](CN)CC3)c(OC)c1 [Compound 16, {[(2R)-8-(2,4-dimethoxyphenyl)-3,4-dihydro-2H-chromen-2-yl]methyl}amine hydrochloride] | ≤ 10 nM | 100% | < 50 nM |  | 
Cc1ccccc1-c1cccc2c1O[C@@H](CN)CC2 [Compound 17, {[(2R)-8-(2-methylphenyl)-3,4-dihydro-2H-chromen-2-yl]methyl}amine hydrochloride] | ≤ 10 nM | 80% | < 50 nM |  | 
NC[C@H]1CCc2cccc(-c3cccnc3)c2O1 [Compound 18, {[(2R)-8-pyridin-3-yl-3,4-dihydro-2H-chromen-2-yl]methyl}amine hydrochloride] | > 50 nM | 90% | < 50 nM |  | 

Structure (SMILES) | Ki [1, 3] | Emax [2] | EC50 [2] | Ki ([1]; reference compounds, 95% confidence interval in brackets, [125I]DOI displacement, read-out: Ki) | Kd ([1]; saturation binding with increasing concentrations of [125I] DOI, read-out: dissociation constant, KD)
CNC[C@@H]1CCc2cccc(-c3ccccc3Cl)c2O1 [Compound 19, {[(2S)-8-(2-chlorophenyl)-3,4-dihydro-2H-chromen-2-yl]methyl}methylamine hydrochloride] | ≤ 10 nM | 80% | 50 to 200 nM |  | 
CNC[C@@H]1CCc2cccc(-c3cc(Cl)ccc3Cl)c2O1 [Compound 20, {[(2S)-8-(2,5-dichlorophenyl)-3,4-dihydro-2H-chromen-2-yl]methyl}methylamine hydrochloride] | ≤ 10 nM | 90% | < 50 nM |  | 
CNC[C@@H]1CCc2cccc(-c3ccc(Cl)cc3Cl)c2O1 [Compound 21, {[(2S)-8-(2,4-dichlorophenyl)-3,4-dihydro-2H-chromen-2-yl]methyl}methylamine hydrochloride] | > 50 nM | 80% | 50 to 200 nM |  | 
CNC[C@@H]1CCc2cccc(-c3ccccc3)c2O1 [Compound 22, N-methyl-1-[(2S)-8-phenyl-3,4-dihydro-2H-chromen-2-yl]methanamine hydrochloride] | > 50 nM |  |  |  | 
CNC[C@@H]1CCc2cccc(-c3ccccc3OC)c2O1 [Compound 23, {[(2S)-8-(2-methoxyphenyl)-3,4-dihydro-2H-chromen-2-yl]methyl}methylamine hydrochloride] | > 50 nM |  |  |  | 
CNC[C@@H]1CCc2cccc(-c3ccc(OC)cc3OC)c2O1 [Compound 24, {[(2S)-8-(2,4-dimethoxyphenyl)-3,4-dihydro-2H-chromen-2-yl]methyl}methylamine hydrochloride] | 10 to 50 nM | 100% | 50 to 200 nM |  | 
CNC[C@@H]1CCc2cccc(-c3ccccc3C)c2O1 [Compound 25, N-methyl-1-[(2S)-8-(2-methylphenyl)-3,4-dihydro-2H-chromen-2-yl]methanamine hydrochloride] | 10 to 50 nM | 90% | > 200 nM |  | 
CNC[C@@H]1CCc2cccc(-c3cccnc3)c2O1 [Compound 26, N-methyl-1-[(2S)-8-pyridin-3-yl-3,4-dihydro-2H-chromen-2-yl]methanamine hydrochloride] | > 50 nM |  |  |  | 
NC[C@@H]1CCc2cccc(-c3ccccc3)c2O1 [Compound 30, {[(2S)-8-phenyl-3,4-dihydro-2H-chromen-2-yl]methyl}amine hydrochloride] | > 50 nM |  |  |  | 
COc1ccccc1-c1cccc2c1O[C@H](CN)CC2 [Compound 31, {[(2S)-8-(2-methoxyphenyl)-3,4-dihydro-2H-chromen-2-yl]methyl}amine hydrochloride] | > 50 nM |  |  |  | 
NC[C@@H]1CCc2cccc(-c3cccnc3)c2O1 [Compound 34, {[(2S)-8-pyridin-3-yl-3,4-dihydro-2H-chromen-2-yl]methyl}amine hydrochloride] | > 50 nM |  |  |  | 
NC[C@@H]1CCc2cc(F)cc(-c3ccccc3)c2O1 [Compound 52, {[(2S)-6-fluoro-8-phenyl-3,4-dihydro-2H-chromen-2-yl]methyl}amine hydrochloride] | > 50 nM |  |  |  | 
NC[C@@H]1CCc2cc(F)cc(-c3cccnc3)c2O1 [Compound 54, {[(2S)-6-fluoro-8-pyridin-3-yl-3,4-dihydro-2H-chromen-2-yl]methyl}amine hydrochloride] | > 50 nM |  |  |  | 
Cc1ccccc1-c1c(Cl)ccc2c1O[C@@H](CN)CC2 [Compound 69, ((2R)-7-Chloro-8-o-tolylchroman-2-yl)methanamine hydrochloride] | ≤ 10 nM |  |  |  | 
NC[C@H]1CCc2ccc(F)c(-c3ccccc3Cl)c2O1 [Compound 71, ((2R)-8-(2-chlorophenyl)-7-fluorochroman-2-yl)methanamine hydrochloride] | ≤ 10 nM |  |  |  | 
Cc1cc(Cl)ccc1-c1c(F)ccc2c1O[C@@H](CN)CC2 [Compound 72, ((2R)-8-(4-Chloro-2-methylphenyl)-7-fluorochroman-2-yl)methanamine hydrochloride] | ≤ 10 nM |  |  |  | 
CSc1ccc2c(c1)C(N1CCN(C)CC1)Cc1ccccc1S2 (stereo not shown) [Methiothepin, reference compound] |  |  |  | 4.6 nM | 
COc1cc(CC(C)N)c(OC)cc1I (stereo not shown) [[^125I] DOI, reference compound] |  |  |  |  | 0.4 nM
